{
  "source": "paper PMC5218480",
  "about": "(PLoS ONE, 2017)",
  "test_system": "MV-4-11 cells",
  "assay": "Gene expression microarray analysis (Affymetrix PrimeView) and GSEA",
  "format": "cell-based, human",
  "set-up": "RFU PODN (11730768_x_at) / Fold change /veh PODN (11730768_x_at) / RFU LINC00158 (11744669_a_at) / Fold change /veh LINC00158 (11744669_a_at) / RFU DUSP10 (11751237_a_at) / Fold change /veh DUSP10 (11751237_a_at) / RFU ID3 (11757404_x_at) / Fold change /veh ID3 (11757404_x_at) / RFU PLEKHG5 (11737974_s_at) / Fold change /veh PLEKHG5 (11737974_s_at) / RFU LRRC4B (11730491_at) / Fold change /veh LRRC4B (11730491_at) / RFU GIMAP4 (11747438_a_at) / Fold change /veh GIMAP4 (11747438_a_at) / RFU KRT8 (11758183_x_at) / Fold change /veh KRT8 (11758183_x_at) / RFU CNN1 (11734310_a_at) / Fold change /veh CNN1 (11734310_a_at) / RFU VPS37D (11726825_at) / Fold change /veh VPS37D (11726825_at) / RFU C10orf10 (11716522_x_at) / Fold change /veh C10orf10 (11716522_x_at) / RFU KIR2DL2 /// KIR2DL4 /// KIR2DL5A /// KIR2DL5B /// KIR2DS1 /// KIR2DS2 /// KIR2DS3 /// KIR2DS4 /// KIR3DL3 /// KIR3DL3 /// KIR3DS1 (11738374_at) / Fold change /veh KIR2DL2 /// KIR2DL4 /// KIR2DL5A /// KIR2DL5B /// KIR2DS1 /// KIR2DS2 /// KIR2DS3 /// KIR2DS4 /// KIR3DL3 /// KIR3DL3 /// KIR3DS1 (11738374_at) / RFU C1QL1 (11718748_at) / Fold change /veh C1QL1 (11718748_at) / RFU TMPRSS4 (11747572_a_at) / Fold change /veh TMPRSS4 (11747572_a_at) / RFU HAMP (11756126_x_at) / Fold change /veh HAMP (11756126_x_at) / RFU RNFT2 (11725882_a_at) / Fold change /veh RNFT2 (11725882_a_at) / RFU NR4A2 (11747474_a_at) / Fold change /veh NR4A2 (11747474_a_at) / RFU ABCC12 (11746883_a_at) / Fold change /veh ABCC12 (11746883_a_at) / RFU TMEM136 (11760407_x_at) / Fold change /veh TMEM136 (11760407_x_at) / RFU CLDN22 /// WWC2 (11732394_at) / Fold change /veh CLDN22 /// WWC2 (11732394_at) / RFU HLA-DPB1 (11760878_x_at) / Fold change /veh HLA-DPB1 (11760878_x_at) / RFU SPINT1 (11716480_a_at) / Fold change /veh SPINT1 (11716480_a_at) / RFU GAP43 (11754022_s_at) / Fold change /veh GAP43 (11754022_s_at) / RFU A4GNT (11735810_at) / Fold change /veh A4GNT (11735810_at) / RFU PRB3 (11715151_x_at) / Fold change /veh PRB3 (11715151_x_at) / RFU TUBB4B (11761932_at) / Fold change /veh TUBB4B (11761932_at) / RFU CAPN14 (11732068_a_at) / Fold change /veh CAPN14 (11732068_a_at) / RFU TMCC2 (11721928_a_at) / Fold change /veh TMCC2 (11721928_a_at) / RFU IRGQ (11745062_a_at) / Fold change /veh IRGQ (11745062_a_at) / RFU FAM174B (11720279_a_at) / Fold change /veh FAM174B (11720279_a_at) / RFU TMPRSS4 (11748680_a_at) / Fold change /veh TMPRSS4 (11748680_a_at) / RFU FAM212B (11763350_a_at) / Fold change /veh FAM212B (11763350_a_at) / RFU PLEKHG5 (11743358_a_at) / Fold change /veh PLEKHG5 (11743358_a_at) / RFU ZSCAN30 (11745921_a_at) / Fold change /veh ZSCAN30 (11745921_a_at) / RFU CMKLR1 (11741424_a_at) / Fold change /veh CMKLR1 (11741424_a_at) / RFU LOC101060620 /// MAPK8IP1 (11723275_at) / Fold change /veh LOC101060620 /// MAPK8IP1 (11723275_at) / RFU SPTSSB (11747773_x_at) / Fold change /veh SPTSSB (11747773_x_at) / RFU PRSS12 (11739890_at) / Fold change /veh PRSS12 (11739890_at) / RFU BIN1 (11741810_x_at) / Fold change /veh BIN1 (11741810_x_at) / RFU WNT11 (11732464_a_at) / Fold change /veh WNT11 (11732464_a_at) / RFU C10orf10 (11716521_a_at) / Fold change /veh C10orf10 (11716521_a_at) / RFU C5orf56 (11738089_at) / Fold change /veh C5orf56 (11738089_at) / RFU CYB561 (11721691_x_at) / Fold change /veh CYB561 (11721691_x_at) / RFU ANKRD19P (11752326_a_at) / Fold change /veh ANKRD19P (11752326_a_at) / RFU OR2T12 /// OR2T33 /// OR2T8 (11738714_s_at) / Fold change /veh OR2T12 /// OR2T33 /// OR2T8 (11738714_s_at) / RFU VCAN (11748164_a_at) / Fold change /veh VCAN (11748164_a_at) / RFU JSRP1 (11732532_at) / Fold change /veh JSRP1 (11732532_at) / RFU KRTAP10-11 (11738290_x_at) / Fold change /veh KRTAP10-11 (11738290_x_at) / RFU MYO3A (11730013_a_at) / Fold change /veh MYO3A (11730013_a_at) / RFU EBF3 (11725865_a_at) / Fold change /veh EBF3 (11725865_a_at) / RFU CAMK2N1 (11719241_x_at) / Fold change /veh CAMK2N1 (11719241_x_at) / RFU C5orf56 (11738088_a_at) / Fold change /veh C5orf56 (11738088_a_at) / RFU OLFML3 (11715873_a_at) / Fold change /veh OLFML3 (11715873_a_at) / RFU LOC100653217 /// NTM (11731650_a_at) / Fold change /veh LOC100653217 /// NTM (11731650_a_at) / RFU MAPK11 (11762145_a_at) / Fold change /veh MAPK11 (11762145_a_at) / RFU FIZ1 (11724087_x_at) / Fold change /veh FIZ1 (11724087_x_at) / RFU OASL (11726364_x_at) / Fold change /veh OASL (11726364_x_at) / RFU SOX15 (11748057_x_at) / Fold change /veh SOX15 (11748057_x_at) / RFU CD79A (11719716_a_at) / Fold change /veh CD79A (11719716_a_at) / RFU HIST1H1D (11736915_at) / Fold change /veh HIST1H1D (11736915_at) / RFU CASKIN2 (11723855_a_at) / Fold change /veh CASKIN2 (11723855_a_at) / RFU LOC730098 (11760151_x_at) / Fold change /veh LOC730098 (11760151_x_at) / RFU OR4N2 (11742367_at) / Fold change /veh OR4N2 (11742367_at) / RFU PRRT2 (11749266_a_at) / Fold change /veh PRRT2 (11749266_a_at) / RFU SNX32 (11753110_a_at) / Fold change /veh SNX32 (11753110_a_at) / RFU CDHR5 (11726645_a_at) / Fold change /veh CDHR5 (11726645_a_at) / RFU RCAN1 (11760418_a_at) / Fold change /veh RCAN1 (11760418_a_at) / RFU FAM167A (11723789_a_at) / Fold change /veh FAM167A (11723789_a_at) / RFU FAM26E (11764081_at) / Fold change /veh FAM26E (11764081_at) / RFU ISYNA1 (11749810_s_at) / Fold change /veh ISYNA1 (11749810_s_at) / RFU ACY1 (11761880_at) / Fold change /veh ACY1 (11761880_at) / RFU 11764098_at / Fold change /veh 11764098_at / RFU SAMD14 (11745864_x_at) / Fold change /veh SAMD14 (11745864_x_at) / RFU NPB (11741838_a_at) / Fold change /veh NPB (11741838_a_at) / RFU TMPRSS6 (11731388_a_at) / Fold change /veh TMPRSS6 (11731388_a_at) / RFU KRTAP10-2 (11738614_at) / Fold change /veh KRTAP10-2 (11738614_at) / RFU ARHGAP8 /// PRR5-ARHGAP8 (11727945_x_at) / Fold change /veh ARHGAP8 /// PRR5-ARHGAP8 (11727945_x_at) / RFU KRTAP5-7 /// NADSYN1 (11734609_at) / Fold change /veh KRTAP5-7 /// NADSYN1 (11734609_at) / RFU RASL12 (11751679_a_at) / Fold change /veh RASL12 (11751679_a_at) / RFU CDKN2B (11736163_a_at) / Fold change /veh CDKN2B (11736163_a_at) / RFU PRF1 (11729649_at) / Fold change /veh PRF1 (11729649_at) / RFU, ZNF638 /// ZNF638-IT1 / Fold change vs veh, ZNF638 /// ZNF638-IT1 / RFU, PANK3 / Fold change vs veh, PANK3 / RFU, SH3YL1 / Fold change vs veh, SH3YL1 / RFU, ZEB2 / Fold change vs veh, ZEB2 / RFU, NRIP1 / Fold change vs veh, NRIP1 / RFU, PTTG1IP / Fold change vs veh, PTTG1IP / RFU, CAPN2 / Fold change vs veh, CAPN2 / RFU, MED14 / Fold change vs veh, MED14 / RFU, SNORA58 / Fold change vs veh, SNORA58 / RFU, C1orf63 / Fold change vs veh, C1orf63 / RFU, LRRFIP1 / Fold change vs veh, LRRFIP1 / RFU, NDUFAF7 / Fold change vs veh, NDUFAF7 / RFU, SLC12A2 / Fold change vs veh, SLC12A2 / RFU, IBTK / Fold change vs veh, IBTK / RFU, ESF1 / Fold change vs veh, ESF1 / Fold change vs veh, TMEM50B / RFU, TAOK1 / Fold change vs veh, TAOK1 / RFU, ACBD3 / Fold change vs veh, ACBD3 / RFU, TMA16 / Fold change vs veh, TMA16 / RFU, RWDD3 / Fold change vs veh, RWDD3 / RFU, BCAT1 / Fold change vs veh, BCAT1 / RFU, EDEM3 / Fold change vs veh, EDEM3 / RFU, TMEM33 / Fold change vs veh, TMEM33 / RFU, WDR75 / Fold change vs veh, WDR75 / RFU, AHCTF1 / Fold change vs veh, AHCTF1 / RFU, TFRC / Fold change vs veh, TFRC / RFU, ZDHHC17 / Fold change vs veh, ZDHHC17 / RFU, NOM1 / Fold change vs veh, NOM1 / RFU, ARL8B / Fold change vs veh, ARL8B / RFU, ZBTB11 / Fold change vs veh, ZBTB11 / RFU, TAMM41 / Fold change vs veh, TAMM41 / RFU, KIAA1704 /// LOC100996395 / Fold change vs veh, KIAA1704 /// LOC100996395 / RFU, ING1 / Fold change vs veh, ING1 / RFU, TRMT61B / Fold change vs veh, TRMT61B / RFU, FUBP3 / Fold change vs veh, FUBP3 / RFU, TP53 / Fold change vs veh, TP53 / RFU, TNKS2 / Fold change vs veh, TNKS2 / RFU, ZFP14 / Fold change vs veh, ZFP14 / RFU, ACTR2 / Fold change vs veh, ACTR2 / RFU, PPP3R1 / Fold change vs veh, PPP3R1 / RFU, PIK3R1 / Fold change vs veh, PIK3R1 / RFU, HNRNPA1 / Fold change vs veh, HNRNPA1 / RFU, RNF170 / Fold change vs veh, RNF170 / RFU, ZNF28 / Fold change vs veh, ZNF28 / RFU, RNGTT / Fold change vs veh, RNGTT / RFU, OGT / Fold change vs veh, OGT / RFU, BRD1 / Fold change vs veh, BRD1 / RFU, MARS / Fold change vs veh, MARS / RFU, ZNF655 / Fold change vs veh, ZNF655 / RFU, FAHD1 / Fold change vs veh, FAHD1 / RFU, BDP1 / Fold change vs veh, BDP1 / RFU, LRRCC1 / Fold change vs veh, LRRCC1 / RFU, ARID1A / Fold change vs veh, ARID1A / RFU, ZNF146 / Fold change vs veh, ZNF146 / RFU, ZNF330 / Fold change vs veh, ZNF330 / RFU, GPN3 / Fold change vs veh, GPN3 / RFU, C9orf123 / Fold change vs veh, C9orf123 / RFU, N4BP2L2 / Fold change vs veh, N4BP2L2 / RFU, ARFIP1 / Fold change vs veh, ARFIP1 / RFU, FAM179B / Fold change vs veh, FAM179B / RFU, BCL10 / Fold change vs veh, BCL10 / RFU, UHRF1BP1L / Fold change vs veh, UHRF1BP1L / RFU, BET1 / Fold change vs veh, BET1 / RFU, CNOT2 / Fold change vs veh, CNOT2 / RFU, ZNF268 / Fold change vs veh, ZNF268 / Fold change vs veh, ZNF507 / RFU, DGCR2 / Fold change vs veh, DGCR2 / RFU, WDSUB1 / Fold change vs veh, WDSUB1 / Fold change vs veh, HSP90B1 /// MIR3652 / RFU, ADSS / Fold change vs veh, ADSS / RFU, GK / Fold change vs veh, GK / RFU, ZNF148 / Fold change vs veh, ZNF148 / RFU, TAF9 / Fold change vs veh, TAF9 / RFU, SLC1A5 / Fold change vs veh, SLC1A5 / RFU, SLMO2 / Fold change vs veh, SLMO2 / RFU, ABCC4 / Fold change vs veh, ABCC4 / RFU, LOC101060439 /// RAP1B / Fold change vs veh, LOC101060439 /// RAP1B / RFU, RFX7 / Fold change vs veh, RFX7 / RFU, GTPBP10 / Fold change vs veh, GTPBP10 / RFU, CNEP1R1 / Fold change vs veh, CNEP1R1 / RFU, BIVM-ERCC5 /// ERCC5 / Fold change vs veh, BIVM-ERCC5 /// ERCC5 / RFU, ILF3 / Fold change vs veh, ILF3 / RFU 11762660_at / Fold change /veh 11762660_at / RFU VCAN (11757783_s_at) / Fold change /veh VCAN (11757783_s_at) / RFU DDX43 (11728927_at) / Fold change /veh DDX43 (11728927_at) / RFU KRT8 (11758188_x_at) / Fold change /veh KRT8 (11758188_x_at) / RFU NKD1 (11759106_at) / Fold change /veh NKD1 (11759106_at) / RFU SRD5A1 (11742802_a_at) / Fold change /veh SRD5A1 (11742802_a_at) / RFU TPSAB1 /// TPSB2 (11721975_s_at) / Fold change /veh TPSAB1 /// TPSB2 (11721975_s_at) / RFU GSTM3 (11746129_a_at) / Fold change /veh GSTM3 (11746129_a_at) / RFU IL23R (11737362_x_at) / Fold change /veh IL23R (11737362_x_at) / RFU TMEM51 (11727254_a_at) / Fold change /veh TMEM51 (11727254_a_at) / RFU PIWIL2 (11732686_x_at) / Fold change /veh PIWIL2 (11732686_x_at) / RFU ORM1 (11744905_x_at) / Fold change /veh ORM1 (11744905_x_at) / RFU CCDC152 (11743942_at) / Fold change /veh CCDC152 (11743942_at) / RFU ECM1 (11717891_a_at) / Fold change /veh ECM1 (11717891_a_at) / RFU IL23R (11748794_a_at) / Fold change /veh IL23R (11748794_a_at) / RFU TNFAIP8L3 (11732012_x_at) / Fold change /veh TNFAIP8L3 (11732012_x_at) / RFU MBOAT4 (11741988_at) / Fold change /veh MBOAT4 (11741988_at) / RFU 11764193_at / Fold change /veh 11764193_at / RFU TMEM53 (11763286_at) / Fold change /veh TMEM53 (11763286_at) / RFU MAGEB2 (11727129_at) / Fold change /veh MAGEB2 (11727129_at) / RFU TMEM200A (11744735_a_at) / Fold change /veh TMEM200A (11744735_a_at) / RFU CCDC152 (11751479_a_at) / Fold change /veh CCDC152 (11751479_a_at) / RFU FAM211A (11726209_a_at) / Fold change /veh FAM211A (11726209_a_at) / RFU RGS16 (11746705_a_at) / Fold change /veh RGS16 (11746705_a_at) / RFU VCAN (11755009_s_at) / Fold change /veh VCAN (11755009_s_at) / RFU RHOB (11743442_s_at) / Fold change /veh RHOB (11743442_s_at) / RFU RGS16 (11720943_a_at) / Fold change /veh RGS16 (11720943_a_at) / RFU RGS16 (11720944_at) / Fold change /veh RGS16 (11720944_at) / RFU, VPS4B / Fold change vs veh, VPS4B / RFU, CREB1 / Fold change vs veh, CREB1 / RFU, DNAJC13 / Fold change vs veh, DNAJC13 / RFU, GNAQ / Fold change vs veh, GNAQ / RFU, CDK5R1 / Fold change vs veh, CDK5R1 / RFU, ZRANB3 / Fold change vs veh, ZRANB3 / RFU, CUL4A / Fold change vs veh, CUL4A / RFU, CCNY / Fold change vs veh, CCNY / RFU, UFL1 / Fold change vs veh, UFL1 / RFU, COG3 / Fold change vs veh, COG3 / RFU, DIAPH2 / Fold change vs veh, DIAPH2 / RFU, SKA2 / Fold change vs veh, SKA2 / RFU, AFF3 / Fold change vs veh, AFF3 / RFU, LMF1 / Fold change vs veh, LMF1 / RFU, IPO11 / Fold change vs veh, IPO11 / RFU, DFFB / Fold change vs veh, DFFB / RFU, FOXP1 / Fold change vs veh, FOXP1 / RFU, CARD8 / Fold change vs veh, CARD8 / RFU, STRN3 / Fold change vs veh, STRN3 / RFU, ADK / Fold change vs veh, ADK / RFU, RASSF2 / Fold change vs veh, RASSF2 / RFU, WIPF1 / Fold change vs veh, WIPF1 / RFU, LARP1B / Fold change vs veh, LARP1B / RFU, RASA1 / Fold change vs veh, RASA1 / RFU, RB1 / Fold change vs veh, RB1 / RFU, PPFIA1 / Fold change vs veh, PPFIA1 / RFU, MAT2A / Fold change vs veh, MAT2A / RFU, CCT5 / Fold change vs veh, CCT5 / RFU, WDR92 / Fold change vs veh, WDR92 / RFU, CUX1 / Fold change vs veh, CUX1 / RFU, TTC7A / Fold change vs veh, TTC7A / RFU, TMEM135 / Fold change vs veh, TMEM135 / RFU, DEPTOR / Fold change vs veh, DEPTOR / RFU, CPM / Fold change vs veh, CPM / RFU, DNAJB6 / Fold change vs veh, DNAJB6 / RFU, CACNA2D3 / Fold change vs veh, CACNA2D3 / RFU, DTX4 / Fold change vs veh, DTX4 / RFU, TFCP2 / Fold change vs veh, TFCP2 / RFU, GMCL1 /// GMCL1P1 / Fold change vs veh, GMCL1 /// GMCL1P1 / RFU, AEBP2 / Fold change vs veh, AEBP2 / RFU, SNHG1 /// SNORD22 /// SNORD25 /// SNORD26 /// SNORD27 /// SNORD28 /// SNORD29 /// SNORD31 / Fold change vs veh, SNHG1 /// SNORD22 /// SNORD25 /// SNORD26 /// SNORD27 /// SNORD28 /// SNORD29 /// SNORD31 / Fold change (Aza/veh), C12orf56 (ProbeSet 11735607_a_at) / Fold change (ACY-1035/veh), C12orf56 (ProbeSet 11735607_a_at) / Fold change (Aza/veh), FGFR1OP (ProbeSet 11751329_s_at) / Fold change (ACY-1035/veh), FGFR1OP (ProbeSet 11751329_s_at) / Fold change (Aza/veh), VPS36 (ProbeSet 11739960_a_at) / Fold change (ACY-1035/veh), VPS36 (ProbeSet 11739960_a_at) / RFU SYPL1 (11715823_x_at) / Fold change /veh SYPL1 (11715823_x_at) / RFU IGFBP7 (11715501_s_at) / Fold change /veh IGFBP7 (11715501_s_at) / RFU REEP3 (11722064_at) / Fold change /veh REEP3 (11722064_at) / RFU IGLL1 (11728026_x_at) / Fold change /veh IGLL1 (11728026_x_at): dose or concentration left out as unconfirmed",
  "conditions": "ProbeSet 11743510_at; LIST D",
  "data": [
    {"smiles": "Nc1ncn([C@@H]2O[C@H](CO)[C@@H](O)[C@H]2O)c(=O)n1", "note": "[azacitidine]", "values": [
      {"measurement": "Fold change vs veh, UFL1", "value": 0.83}
    ]}
  ]
}
